Experimental data taken from patent US4015974A, “Amido phosphorothiolates” (priority 1972, dated 1977).

Assays:
Assay type in all cases: in vivo
[1] = tested on: broad-leaved weeds, e.g., monochoria, false pimpernel and toothcup; experiment: Water application, herbicidal effect on broad-leaved weeds (Table 2); set-up: key: 0: not damaged; 5: completely killed; conditions: 25 days, score 0-5
Method in brief: (§1)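 Under water-lodged conditions, wettable-powder test compounds are applied to paddy soil carrying transplanted rice (3-leaf) and sown barnyard grass. Activity on these and on spontaneously emerged broad-leaved weeds is graded 0 to 5 twenty-five days later.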

[2] = tested on: common lambsquarter (Chenopodium album); experiment: Pre-emergence application, herbicidal effect on common lambsquarter (Table 1); set-up: key: 0: not damaged; 5: completely killed; conditions: 20 days after application, score 0-5
Method in brief: (§2)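 Pre-emergence soil application of wettable powders diluted in water over covered seeds (~10 cm pots). Greenhouse growth; visual 0–5 rating (0 none, 5 dead) at 20 days.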

[3] = tested on: radish; experiment: Pre-emergence application, herbicidal effect on radish (Table 1); set-up: key: 0: not damaged; 5: completely killed; conditions: 20 days after application, score 0-5
Method in brief: as §2

[4] = tested on: rice; experiment: Water application, phytotoxicity on rice (Table 2); set-up: key: 0: no effect; 1: very slightly affected; 2: slightly affected; 3: moderately affected; 4: considerably affected; 5: completely killed; conditions: 25 days, score 0-5
Method in brief: as §1

[5] = tested on: barnyard grass (Echinochloa crus-galli); experiment: Water application, herbicidal effect on barnyard grass (Table 2); set-up: key: 0: not damaged; 5: completely killed; conditions: 25 days, score 0-5
Method in brief: as §1

[6] = tested on: redroot pigweed (Amaranthus retroflexus); experiment: Pre-emergence application, herbicidal effect on redroot pigweed (Table 1); set-up: key: 0: not damaged; 5: completely killed; conditions: 20 days after application, score 0-5
Method in brief: as §2

[7] = tested on: barnyard grass (Echinochloa crus-galli); experiment: Pre-emergence application, herbicidal effect on barnyard grass (Table 1); set-up: key: 0: not damaged; 5: completely killed; conditions: 20 days after application, score 0-5
Method in brief: as §2

[8] = tested on: common purslane (Portulaca oleracea); experiment: Pre-emergence application, herbicidal effect on common purslane (Table 1); set-up: key: 0: not damaged; 5: completely killed; conditions: 20 days after application, score 0-5
Method in brief: as §2

[9] = tested on: large crabgrass (Digitaria sanguinalis); experiment: Pre-emergence application, herbicidal effect on large crabgrass (Table 1); set-up: key: 0: not damaged; 5: completely killed; conditions: 20 days after application, score 0-5
Method in brief: as §2

| Compound | Herbicidal effects, broad-leaved weeds ([1]; 10 g/a) | Herbicidal effects, broad-leaved weeds ([1]; 20 g/a) | Herbicidal effects, broad-leaved weeds ([1]; 40 g/a) | Herbicidal effect, common lambsquarter ([2]; 10 g./a.) | Herbicidal effect, common lambsquarter ([2]; 20 g./a.) | Herbicidal effect, common lambsquarter ([2]; 40 g./a.) | Herbicidal effect, radish ([3]; 10 g./a.) | Herbicidal effect, radish ([3]; 20 g./a.) | Herbicidal effect, radish ([3]; 40 g./a.) | Phytotoxicity on rice ([4]; 10 g/a) | Phytotoxicity on rice ([4]; 20 g/a) | Phytotoxicity on rice ([4]; 40 g/a) | Herbicidal effects, barnyard grass ([5]; 10 g/a) | Herbicidal effects, barnyard grass ([5]; 20 g/a) | Herbicidal effects, barnyard grass ([5]; 40 g/a) | Herbicidal effect, redroot pigweed ([6]; 10 g./a.) | Herbicidal effect, redroot pigweed ([6]; 20 g./a.) | Herbicidal effect, redroot pigweed ([6]; 40 g./a.) | Herbicidal effect, barnyard grass ([7]; 10 g./a.) | Herbicidal effect, barnyard grass ([7]; 20 g./a.) | also measured |
| --- | --- | --- | --- | --- | --- | --- | --- | --- | --- | --- | --- | --- | --- | --- | --- | --- | --- | --- | --- | --- | --- |
| CCCOP(=O)(SCC)SCC(=O)N1CCCCC1CC (stereo not drawn) [Compound 84] | 5 | 5 | 5 | 4 | 5 | 5 | 0 | 1 | 2 | 0 | 0 | 2 | 5 | 5 | 5 | 4 | 5 | 5 | 5 | 5 | Herbicidal effect, barnyard grass ([7]; 40 g./a.): 5; Herbicidal effect, common purslane ([8]; 10 g./a.): 5; Herbicidal effect, common purslane ([8]; 20 g./a.): 5; Herbicidal effect, common purslane ([8]; 40 g./a.): 5; Herbicidal effect, large crabgrass ([9]; 10 g./a.): 5; Herbicidal effect, large crabgrass ([9]; 20 g./a.): 5; Herbicidal effect, large crabgrass ([9]; 40 g./a.): 5 |
| CCCOP(=O)(SCCC)SCC(=O)N1CCCCC1CC (stereo not drawn) [Compound 85] | 5 | 5 | 5 | 5 | 5 | 5 | 0 | 0 | 0 | 0 | 0 | 0 | 5 | 5 | 5 | 5 | 5 | 5 | 5 | 5 | Herbicidal effect, barnyard grass ([7]; 40 g./a.): 5; Herbicidal effect, common purslane ([8]; 10 g./a.): 5; Herbicidal effect, common purslane ([8]; 20 g./a.): 5; Herbicidal effect, common purslane ([8]; 40 g./a.): 5; Herbicidal effect, large crabgrass ([9]; 10 g./a.): 5; Herbicidal effect, large crabgrass ([9]; 20 g./a.): 5; Herbicidal effect, large crabgrass ([9]; 40 g./a.): 5 |
